Test results reported in ChEMBL document CHEMBL2074492, “Selective substrates for non-neuronal monoamine transporters” (Mol Pharmacol, 1999).

Key:
[1] = molecular target: T1, Solute carrier family 22 member 2 (Rattus norvegicus, UniProt Q9R0W2); assay: TP_TRANSPORTER: inhibition of MPP+ uptake in OCT2-expressing HEK293 cells; type: functional, cell-based
T1 sequence (Q9R0W2 whole entry): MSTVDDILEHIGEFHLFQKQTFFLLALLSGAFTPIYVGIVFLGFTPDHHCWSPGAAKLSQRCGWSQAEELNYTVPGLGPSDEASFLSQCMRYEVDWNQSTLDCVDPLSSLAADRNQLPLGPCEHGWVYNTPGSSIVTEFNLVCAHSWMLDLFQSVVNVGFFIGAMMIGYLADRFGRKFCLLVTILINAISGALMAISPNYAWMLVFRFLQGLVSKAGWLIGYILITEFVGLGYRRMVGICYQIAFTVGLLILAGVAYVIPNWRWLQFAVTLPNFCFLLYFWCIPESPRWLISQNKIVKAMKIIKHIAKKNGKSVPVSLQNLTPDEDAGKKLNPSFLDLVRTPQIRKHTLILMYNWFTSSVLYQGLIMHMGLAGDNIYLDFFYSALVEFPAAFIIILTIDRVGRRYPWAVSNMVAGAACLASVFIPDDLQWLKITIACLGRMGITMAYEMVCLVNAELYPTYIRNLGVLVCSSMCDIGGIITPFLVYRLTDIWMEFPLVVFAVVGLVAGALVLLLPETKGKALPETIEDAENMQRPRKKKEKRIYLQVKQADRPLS

[2] = molecular target: T1, Solute carrier family 22 member 2; assay: (§1) TP_TRANSPORTER: uptake in OCT2-expressing HEK293 cells; type: functional, cell-based; settings: human
[3] = molecular target: T2, Solute carrier family 22 member 1 (Rattus norvegicus, UniProt Q63089); assay: TP_TRANSPORTER: inhibition of MPP+ uptake in OCT1-expressing HEK293 cells
T2 sequence (Q63089 whole entry): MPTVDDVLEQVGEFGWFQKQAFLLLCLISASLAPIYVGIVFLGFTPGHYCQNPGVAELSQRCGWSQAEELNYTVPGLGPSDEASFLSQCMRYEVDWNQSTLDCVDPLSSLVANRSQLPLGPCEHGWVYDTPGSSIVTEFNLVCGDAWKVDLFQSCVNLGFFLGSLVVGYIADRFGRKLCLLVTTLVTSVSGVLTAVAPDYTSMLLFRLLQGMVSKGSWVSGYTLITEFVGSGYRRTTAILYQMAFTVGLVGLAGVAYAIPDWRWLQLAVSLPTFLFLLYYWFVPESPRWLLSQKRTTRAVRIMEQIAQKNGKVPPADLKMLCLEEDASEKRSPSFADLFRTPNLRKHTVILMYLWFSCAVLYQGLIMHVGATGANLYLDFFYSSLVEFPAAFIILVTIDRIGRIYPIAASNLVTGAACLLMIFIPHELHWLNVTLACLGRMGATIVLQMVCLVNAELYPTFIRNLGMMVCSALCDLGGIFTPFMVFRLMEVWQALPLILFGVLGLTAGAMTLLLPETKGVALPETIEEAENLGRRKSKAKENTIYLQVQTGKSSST

[4] = molecular target: T3, Solute carrier family 22 member 3 (Homo sapiens, UniProt O75751); assay: TP_TRANSPORTER: inhibition of MPP+ uptake in OCT3-expressing HEK293 cells
T3 sequence (O75751 whole entry): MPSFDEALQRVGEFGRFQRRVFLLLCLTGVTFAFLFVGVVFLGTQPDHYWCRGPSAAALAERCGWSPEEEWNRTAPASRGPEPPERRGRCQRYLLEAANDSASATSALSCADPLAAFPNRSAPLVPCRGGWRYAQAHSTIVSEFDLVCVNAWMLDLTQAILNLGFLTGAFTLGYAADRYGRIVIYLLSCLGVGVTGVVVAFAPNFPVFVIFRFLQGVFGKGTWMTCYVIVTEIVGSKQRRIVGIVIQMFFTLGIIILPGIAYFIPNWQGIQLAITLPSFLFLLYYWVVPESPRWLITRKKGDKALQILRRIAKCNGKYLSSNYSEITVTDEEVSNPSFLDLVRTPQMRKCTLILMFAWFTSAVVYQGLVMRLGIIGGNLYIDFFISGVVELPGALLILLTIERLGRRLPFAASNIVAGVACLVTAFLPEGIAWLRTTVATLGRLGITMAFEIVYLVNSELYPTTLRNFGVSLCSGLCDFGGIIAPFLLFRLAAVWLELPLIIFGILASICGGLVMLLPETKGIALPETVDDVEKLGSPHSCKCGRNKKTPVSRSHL

[5] = substrate: C[n+]1ccc(-c2ccccc2)cc1; assay: as §1; type: functional, cell-based
[6] = substrate: N=C(N)N; assay: as §1; type: functional, cell-based

With N=C(N)N [GUANIDINE] the Ki [1] was 280 µM.

For CN1CC(=O)NC1=N [CREATININE], the Activity [2] was “substrate [+]”.

In the case of CC[N+](CC)(CC)CC [TETRYLAMMONIUM], the Activity [2] is reported as “substrate [+]”.

In the case of NCCc1c[nH]cn1 [HISTAMINE], the Ki [1] is reported as 390 µM, the Ki [3] is reported as 1400 µM and the Ki [4] is reported as 140 µM.

B1: Solute carrier family 22 member 2 (Rattus norvegicus) (protein)
chain: MSTVDDILEHIGEFHLFQKQTFFLLALLSGAFTPIYVGIVFLGFTPDHHCWSPGAAKLSQRCGWSQAEELNYTVPGLGPSDEASFLSQCMRYEVDWNQSTLDCVDPLSSLAADRNQLPLGPCEHGWVYNTPGSSIVTEFNLVCAHSWMLDLFQSVVNVGFFIGAMMIGYLADRFGRKFCLLVTILINAISGALMAISPNYAWMLVFRFLQGLVSKAGWLIGYILITEFVGLGYRRMVGICYQIAFTVGLLILAGVAYVIPNWRWLQFAVTLPNFCFLLYFWCIPESPRWLISQNKIVKAMKIIKHIAKKNGKSVPVSLQNLTPDEDAGKKLNPSFLDLVRTPQIRKHTLILMYNWFTSSVLYQGLIMHMGLAGDNIYLDFFYSALVEFPAAFIIILTIDRVGRRYPWAVSNMVAGAACLASVFIPDDLQWLKITIACLGRMGITMAYEMVCLVNAELYPTYIRNLGVLVCSSMCDIGGIITPFLVYRLTDIWMEFPLVVFAVVGLVAGALVLLLPETKGKALPETIEDAENMQRPRKKKEKRIYLQVKQADRPLS
B1 showed a Km [5] of 9.4 µM and a Km [6] of 730 µM.
